Experimental data reported in patent publication US20210386709A1, “COMPOSITIONS AND METHODS FOR SUPPRESSING MSUT2” (United States Government As Represented By The Department …, priority 2020, published 2021).
Values joined by “and” are separate entries in the source; they are usually repeats but may differ in a detail not shown here. Identical values can stand only once.

How the values were obtained:
HEK-293 cells = assay: Cell viability, Promega Cell Titer Glo
Procedure: Cell culture and cytotoxicity screen. […] Cell viability was assessed as using Promega Cell Titer Glo (Promega G7570) per manufacturer protocol. Briefly, HEK-293 cells were grown to 70% confluence in a 96 well plate were treated with indicated concentrations of compounds and incubated for 72 hours at 37° C. Plates were read for luminescence on Perkin Elmer Enspire Alpha.
Cell viability was assessed. Briefly, HEK-293 cells grown to 70% confluence in a 96 well dish were treated with varying concentrations of compound (final concentration of 2% DMSO) and incubated for 72 hours. Next, Promega Cell Titer Glo assay was used to assess viability per manufacturer instructions (Promega G7570).

GST-MSUT2 = molecular target: T1, GST-MSUT2 (Homo sapiens, UniProt Q6PJT7); assay: Alpha Screen assay of biotinylated poly(A) RNA:GST-MSUT2 binding; conditions: by Alpha assay
T1 construct: Targeted construct consisted of the c-terminal end (dark blue and amino acids 601-736) of MSUT2; made in house; host or cells: E. coli BL21 (DE3)
T1 sequence (Q6PJT7 601-736): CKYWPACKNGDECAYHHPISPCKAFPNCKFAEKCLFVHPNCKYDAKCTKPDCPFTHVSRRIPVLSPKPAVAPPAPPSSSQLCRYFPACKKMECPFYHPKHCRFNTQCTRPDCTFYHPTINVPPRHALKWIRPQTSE
Procedure: (§1) Alpha Screen Assay. Samples were set up in 384 well Perkin Elmer white opaque-bottom plates (PE06). A total reaction volume of […] was plated in 384 format using a CyBio Well Vario (6 μL of donor beads (10 μg/mL), 3 μL biotinylated RNA (250 nM), 3 μL GST-MSUT2 protein (250 nM) per well). 50 nL of compounds were transferred to wells via CyBio Vario equipped with Pin Tool. This mixture was incubated at room temperature for 30 minutes away from light. Next 3 μL of acceptor beads (1.25 μg/mL) was added. Plates were incubated at room temperature away from light for 60 minutes and subsequently read on a Perkin Elmer EnVision multimode microplate reader equipped with stackers using a standard 384-well Alpha Assay software protocol.
Results. Alpha Screen design and underlying principle. Alpha Screen technology relies on donor beads, coated with a hydrogel excitable by 680 nm, brought within close proximity to an acceptor bead leading to light emission and detection. In this assay, streptavidin coated donor beads tightly bind to biotinylated-poly(A) RNA while the glutathione-coated acceptor bead binds to GST-tagged MSUT2 protein. […] When this interaction is blocked by an inhibitor, the proximity threshold for donor and acceptor beads is not met, singlet oxygen transference cannot occur, and light is not emitted by the acceptor bead (FIG. 1a).
Identification and validation of MSUT2 inhibitory compounds from NIHCC library. The single-point primary screen was conducted in duplicate and utilized the FP assay conditions determined herein (e.g., 125 nM MSUT2 RNABP and 10 nM FAM-RNA probe) with 10 μM library compounds added in a 96-well format. […] Compound specificity was empirically tested by counter screening against PABPN1, a regulator of the length of mRNA poly(A) tails (Apponi, L. H. et al. Hum Mol Genet 19, 1058-1065, (2010); and Benoit, B. et al. Dev Cell 9, 511-522, (2005)). IC50 of each of the previous 8 compounds was determined for PABPN1 using fluorescence polarization (FIG. 11), and a specificity ratio determined (Table 3). An Alpha Screen (AS) assay was developed as an orthogonal screen. Briefly, in this screen, biotinylated RNA binds streptavidin-coated donor beads, while GST-MSUT2 ZF binds glutathione-coated acceptor beads. […] Toxicity of these compounds in a HEK cell model was determined using a standard Promega Cell Titer Glo assay.
Alpha Screen Assay. […] The plate was then incubated again at room temperature away from light for 60 minutes and subsequently read on a Perkin Elmer EnSight multimode microplate reader using a standard 96-well Alpha Assay protocol.

[1] = molecular target: T2, Soluble epoxide hydrolase (gene EPXH2) (Homo sapiens, UniProt P34913); conditions: read-out: Ki (nM) for Known Target; cited from earlier work
T2 sequence (P34913 1-555): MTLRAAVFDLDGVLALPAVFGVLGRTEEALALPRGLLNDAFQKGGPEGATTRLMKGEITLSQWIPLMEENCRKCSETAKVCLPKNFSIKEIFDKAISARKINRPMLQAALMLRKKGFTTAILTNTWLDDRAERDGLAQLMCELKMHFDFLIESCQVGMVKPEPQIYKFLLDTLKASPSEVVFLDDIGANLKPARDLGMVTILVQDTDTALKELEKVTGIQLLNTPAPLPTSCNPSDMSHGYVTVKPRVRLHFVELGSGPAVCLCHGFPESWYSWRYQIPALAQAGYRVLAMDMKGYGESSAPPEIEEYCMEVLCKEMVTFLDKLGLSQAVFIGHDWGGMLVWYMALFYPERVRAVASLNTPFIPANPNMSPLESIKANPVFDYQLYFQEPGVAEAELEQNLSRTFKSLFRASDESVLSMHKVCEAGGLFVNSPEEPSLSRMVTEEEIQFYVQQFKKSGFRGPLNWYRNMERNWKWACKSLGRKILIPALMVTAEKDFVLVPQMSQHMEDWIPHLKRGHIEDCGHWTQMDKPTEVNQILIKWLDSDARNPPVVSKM

PABPN1 = molecular target: T3, PABPN1 (Homo sapiens, UniProt Q86U42); assay: Alpha Screen selectivity screen against PABPN1; assay type: binding; conditions: Alpha Screen dose response IC50s
T3 construct: made in house; host or cells: E. coli BL21 (DE3)
T3 sequence (Q86U42 1-306): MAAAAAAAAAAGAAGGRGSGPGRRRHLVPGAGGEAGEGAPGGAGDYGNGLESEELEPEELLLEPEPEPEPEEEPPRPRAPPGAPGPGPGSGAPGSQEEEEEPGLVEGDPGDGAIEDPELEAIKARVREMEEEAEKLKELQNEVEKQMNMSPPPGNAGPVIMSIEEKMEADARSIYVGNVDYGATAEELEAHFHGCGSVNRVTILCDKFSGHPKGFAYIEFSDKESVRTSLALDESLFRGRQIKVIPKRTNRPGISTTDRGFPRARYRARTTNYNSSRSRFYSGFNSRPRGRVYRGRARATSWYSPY
Procedure: FIGS. 6A-B show the Selectivity screen. Compounds were screened by Alpha Screen (FIG. 6A) for MSUT2 and PABPN1 (FIG. 6B) dose response. IC50s indicated.
as §1
Screening of the Spectrum Collection. […] The hit window consisted of those compounds 7 standard deviations from the mean (FIG. 2a). In follow up dose-response testing, 11 of the 20 initial hits were validated and moved forward to further validation studies (FIG. 3). Unbound fluorescein-labeled RNA rapidly rotates in solution compared to MSUT2-bound. […] These four compounds were tested for an effect on cell viability using a HEK-cell model. […]

O=c1c2ccccc2[se]n1-c1ccccc1 [Ebselen]
toxicity (effect on cell viability) (HEK-293 cells; HEK-293, 72 hours, indicated concentrations): did not show toxicity in a dose-dependent manner | reduction of cell viability (HEK-293 cells; HEK-293, at the tested doses, compared to DMSO control): roughly 40% | Ki (GST-MSUT2): 1580 nM | Ki [1]: 0.55 nM | fold selectivity for MSUT2 over PABPN1 (PABPN1): 5 fold and 4.6 fold
